# Source: patent US8168651B2, “Protein kinase modulators” (Cylene Pharmaceuticals, Inc., priority 2008, dated 2012)
# Tests used:
# MV-4-11 = experiment: Cell proliferation modulatory activity, MV-4-11; format: cell-based; settings: Homo sapiens, MV4-11; MV-4-11 cells
# K-562 = experiment: Cell proliferation modulatory activity, K-562; format: cell-based; settings: Homo sapiens, K562; K-562 cells
# [1] = tested on: HCT-116 human colorectal carcinoma cells; experiment: Cell-proliferation assay using Alamar Blue dye; format: cell-based; settings: Homo sapiens, HCT-116, second HCT-116 column (c8); read-out: HCT-116 (uM) cell proliferation modulatory activity;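 note: cells exposed to compound for about 4 days, then Alamar Blue added and dye fluorescence read after about 4 h, compared with medium-only control wells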
# recombinant human PIM1 = recombinant human PIM1 (Homo sapiens (Human), UniProt P11309); experiment: PIM-1 kinase activity in cell-free in vitro assay; format: biochemical; settings: cell-free assay; for inhibition at 0.5 µM: 500 nM compound, read-out: PIM-1: % inh 500 nM
# recombinant human CK2 = recombinant human CK2 (Homo sapiens (Human), UniProt P68400); experiment: CK2 assay (cell-free, 33P-ATP filter plate); format: biochemical; settings: 500 nM compound, cell-free assay; read-out: CK2: % inh 500 nM
# Sequence of recombinant human CK2 (P68400 whole entry): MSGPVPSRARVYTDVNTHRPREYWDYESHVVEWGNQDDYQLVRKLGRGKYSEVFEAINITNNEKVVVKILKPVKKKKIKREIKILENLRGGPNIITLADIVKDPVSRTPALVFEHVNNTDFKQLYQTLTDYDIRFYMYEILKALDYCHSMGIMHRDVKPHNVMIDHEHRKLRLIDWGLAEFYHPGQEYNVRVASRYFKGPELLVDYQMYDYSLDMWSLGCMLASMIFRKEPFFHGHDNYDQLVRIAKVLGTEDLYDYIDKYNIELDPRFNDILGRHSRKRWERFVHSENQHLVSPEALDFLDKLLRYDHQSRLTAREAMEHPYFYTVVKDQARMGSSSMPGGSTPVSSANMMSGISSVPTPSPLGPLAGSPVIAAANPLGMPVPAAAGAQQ
# Sequence of recombinant human CK2 (P67870 whole entry partner): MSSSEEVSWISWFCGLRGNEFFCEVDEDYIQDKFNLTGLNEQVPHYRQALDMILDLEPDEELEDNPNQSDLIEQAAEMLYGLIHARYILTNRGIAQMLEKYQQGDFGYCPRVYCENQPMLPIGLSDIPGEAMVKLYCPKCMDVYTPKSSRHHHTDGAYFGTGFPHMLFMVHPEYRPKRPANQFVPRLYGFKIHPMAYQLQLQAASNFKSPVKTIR
# Sequence of recombinant human PIM1 (P11309 whole entry): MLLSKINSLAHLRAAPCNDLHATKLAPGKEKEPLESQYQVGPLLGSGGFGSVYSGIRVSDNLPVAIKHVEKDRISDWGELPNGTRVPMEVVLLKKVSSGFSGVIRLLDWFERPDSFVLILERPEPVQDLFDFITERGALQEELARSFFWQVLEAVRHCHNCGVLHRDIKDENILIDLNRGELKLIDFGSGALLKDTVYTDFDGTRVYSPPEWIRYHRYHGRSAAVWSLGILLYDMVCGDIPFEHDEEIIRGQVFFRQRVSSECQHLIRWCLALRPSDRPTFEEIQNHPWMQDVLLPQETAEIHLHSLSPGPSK
SMILES,IC50 (MV-4-11) [µM],IC50 (K-562) [µM],IC50 [1] [µM],inhibition at 0.5 µM (recombinant human PIM1) [%],inhibition at 0.5 µM (recombinant human CK2) [%],IC50 (recombinant human PIM1) [µM]
CCN(c1ccccc1)c1nc2cc(C(=O)O)ccc2c2cnccc12,> 10,0.339,> 10,28,91.8,
Nc1ccc(CCNc2nc3cc(C(=O)O)ccc3c3cnccc23)cc1,> 10,> 10,> 10,81.8,100,0.321
O=C(O)c1ccc2c(c1)nc(Nc1cccc(Cl)c1)c1cccnc12,> 10,> 10,> 10,59.9,61.1,0.634
O=C(O)c1ccc2c(c1)nc(Nc1ccc(F)c(Cl)c1)c1cccnc12,> 10,> 10,> 10,22.1,19.6,
C#Cc1cccc(Nc2nc3cc(C(=O)O)ccc3c3ncccc23)c1,> 10,> 10,> 10,34.9,77.5,
O=C(O)c1ccc2c(c1)nc(Nc1ccccc1)c1cccnc12,> 10,> 10,> 10,34.7,25.5,
O=C(O)c1ccc2c(c1)nc(NCCc1ccccc1)c1cccnc12,> 10,> 10,> 10,13.7,5.71,
O=C(O)c1ccc2c(c1)nc(Nc1cccc(F)c1)c1cccnc12,> 10,> 10,> 10,37.8,35,
CNc1ncc2c(n1)c(N(C)c1ccccc1)nc1cc(C(=O)O)ccc12,> 10,> 10,> 10,86.6,94.5,0.147
CN(C)c1ncc2c(n1)c(N(C)c1ccccc1)nc1cc(C(=O)O)ccc12,> 10,> 10,> 10,12.2,14,
CC(C)Nc1ncc2c(n1)c(N(C)c1ccccc1)nc1cc(C(=O)O)ccc12,> 10,> 10,> 10,39.9,91.7,
CCOCCNc1ncc2c(n1)c(N(C)c1ccccc1)nc1cc(C(=O)O)ccc12,> 10,> 10,> 10,54.9,79.4,0.649
c1ccc(Nc2nc3ccccc3c3cnccc23)cc1,7.04,> 10,> 10,7,0.786,
Clc1nc2ccccc2c2cnccc12,> 10,> 10,> 10,-2.61,9.99,
O=C(O)c1ccc2c(c1)nc(Nc1ccc(Br)cc1)c1ccncc12,5.9,> 10,> 10,76.7,97.8,0.365
O=C(O)c1ccc2c(c1)nc(Nc1ccc3ncccc3c1)c1ccncc12,3.2,> 10,> 10,93.9,101,0.089
CN(c1cccc(Cl)c1)c1nc2cc(C(=O)O)ccc2c2cnccc12,> 10,> 10,> 10,34.8,89.6,
O=C(O)c1ccc2c(c1)nc(Nc1ccc3cn[nH]c3c1)c1ccncc12,> 10,> 10,> 10,75.1,101,0.228
N#Cc1cc(F)cc(Nc2nc3cc(C(=O)O)ccc3c3cnccc23)c1,> 10,> 10,> 10,94.6,101,0.096
CNc1ccc(C#N)cc1Nc1nc2cc(C(=O)O)ccc2c2cnccc12,6.15,> 10,> 10,19,65,
O=C(O)c1ccc2c(c1)nc(NCCc1ccccc1)c1cnccc12,> 10,> 10,> 10,42.2,-0.531,
O=C(O)c1ccc2c(c1)nc(Nc1ccc(F)c(Cl)c1)c1cnccc12,> 10,> 10,> 10,10.8,1.69,
O=C(O)c1ccc2c(c1)nc(Nc1ccccc1)c1cnccc12,> 10,> 10,> 10,-22.8,-40.3,

SMILES,IC50 (MV-4-11) [µM],IC50 (K-562) [µM],IC50 [1] [µM],inhibition at 0.5 µM (recombinant human PIM1) [%],inhibition at 0.5 µM (recombinant human CK2) [%],IC50 (recombinant human PIM1) [µM]
CN(c1ccccc1)c1nc2cc(C(=O)O)ccc2c2ccncc12,> 10,> 10,> 10,56.8,15.3,0.602
O=C(O)c1ccc2c(c1)nc(Nc1cccc(F)c1)c1cnccc12,> 10,> 10,> 10,55.4,35.8,0.746
C#Cc1cccc(Nc2nc3cc(C(=O)O)ccc3c3ccncc23)c1,> 10,> 10,> 10,46.6,72.4,
O=C(O)c1ccc2c(c1)nc(Nc1cccc(Cl)c1)c1nccnc12,5.81,> 10,> 10,9.61,69.3,
O=C(O)c1ccc2c(c1)nc(Nc1ccc(F)c(Cl)c1)c1nccnc12,> 10,> 10,> 10,-0.602,36.5,
C#Cc1cccc(Nc2nc3cc(C(=O)O)ccc3c3nccnc23)c1,> 10,> 10,> 10,-4.59,85.3,
COC(=O)c1ccc2c(c1)nc(NCCn1cccc1)c1ccncc12,2.83,> 10,9.97,-34.6,9.01,
O=C(O)c1ccc2c(c1)nc(NCCn1cccc1)c1ccncc12,> 10,> 10,> 10,74.5,99.6,0.094
COC(=O)c1ccc2c(c1)nc(N(C)CCc1ccccn1)c1ccncc12,> 10,> 10,> 10,-5.84,-3.68,
CN(CCc1ccccn1)c1nc2cc(C(=O)O)ccc2c2cnccc12,1.54,7.2,0.902,3.73,90.8,
COC(=O)c1ccc2c(c1)nc(NCCCOC(C)C)c1ccncc12,6.42,> 10,> 10,24.2,90.9,
CC(C)OCCCNc1nc2cc(C(=O)O)ccc2c2cnccc12,7.01,> 10,> 10,60.8,98.5,0.402
COC(=O)c1ccc2c(c1)nc(NCCOC(C)C)c1ccncc12,2.94,> 10,> 10,39.1,15.6,
CC(C)OCCNc1nc2cc(C(=O)O)ccc2c2cnccc12,9.46,> 10,> 10,48.2,93,
COC(=O)c1ccc2c(c1)nc(NCCN1CCCC1)c1ccncc12,0.368,1.25,0.9,17.8,8.15,
O=C(O)c1ccc2c(c1)nc(Nc1cc(F)ccc1Br)c1ccncc12,4.13,> 10,> 10,64.5,98.4,0.376
O=C(O)c1ccc2c(c1)nc(Nc1cccc(CO)c1)c1ccncc12,> 10,> 10,> 10,64.7,97.5,0.321
N#Cc1ccc(Nc2nc3cc(C(=O)O)ccc3c3cnccc23)cc1,> 10,> 10,> 10,67.3,95.6,0.31
NC(=O)c1cc(F)cc(Nc2nc3cc(C(=O)O)ccc3c3cnccc23)c1,> 10,> 10,> 10,85,99.2,0.093
NC(=O)c1cc(Cl)cc(Nc2nc3cc(C(=O)O)ccc3c3cnccc23)c1,> 10,> 10,> 10,90.5,102,0.09
CCc1cccc(Nc2nc3cc(C(=O)O)ccc3c3cnccc23)c1,3.64,> 10,> 10,85,101,0.122
CC(C)c1cccc(Nc2nc3cc(C(=O)O)ccc3c3cnccc23)c1,3.16,> 10,> 10,72.4,99.5,0.485
NC(=O)c1cccc(Nc2nc3cc(C(=O)O)ccc3c3cnccc23)c1,> 10,> 10,> 10,74.8,101,0.16
